In PubChem BioAssay (NCI):
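Here, GI50 denotes the concentration required for 50% inhibition of growth. TGI is the concentration that stops growth completely.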

What was measured:
Assay in all cases: NCI-60 cell line screen, 384-well format
COLO 205 colon = system: COLO 205 colon
CCRF-CEM leukemia = system: CCRF-CEM leukemia
MDA-MB-468 breast = system: MDA-MB-468 breast
NCI-H226 lung = system: NCI-H226 lung
NCI-H322M lung = system: NCI-H322M lung
HS 578T breast = system: HS 578T breast
RPMI-8226 leukemia = system: RPMI-8226 leukemia
786-0 renal = system: 786-0 renal
PC-3 prostate = system: PC-3 prostate
TK-10 renal = system: TK-10 renal
K-562 leukemia = system: K-562 leukemia
MALME-3M melanoma = system: MALME-3M melanoma
SF-295 CNS = system: SF-295 CNS
DU-145 prostate = system: DU-145 prostate
ACHN renal = system: ACHN renal
SK-OV-3 ovarian = system: SK-OV-3 ovarian
M14 melanoma = system: M14 melanoma
NCI-H23 lung = system: NCI-H23 lung
UACC-62 melanoma = system: UACC-62 melanoma
HCT-15 colon = system: HCT-15 colon
MDA-MB-231 breast = system: MDA-MB-231 breast
HOP-92 NSCLC = system: HOP-92 NSCLC
EKVX NSCLC = system: EKVX NSCLC
HL-60(TB) leukemia = system: HL-60(TB) leukemia
HT29 colon = system: HT29 colon
OVCAR-5 ovarian = system: OVCAR-5 ovarian
T-47D breast = system: T-47D breast
BT-549 breast = system: BT-549 breast
SK-MEL-28 melanoma = system: SK-MEL-28 melanoma
HCT-116 colon = system: HCT-116 colon
RXF 393 renal = system: RXF 393 renal
SN12C renal = system: SN12C renal
OVCAR-8 ovarian = system: OVCAR-8 ovarian
NCI/ADR-RES ovarian = system: NCI/ADR-RES ovarian
NCI-H460 NSCLC = system: NCI-H460 NSCLC
SNB-75 CNS = system: SNB-75 CNS
CAKI-1 renal = system: CAKI-1 renal
SNB-19 CNS = system: SNB-19 CNS
SW-620 colon = system: SW-620 colon
KM12 colon = system: KM12 colon
UO-31 renal = system: UO-31 renal
SR leukemia = system: SR leukemia
NCI-H522 lung = system: NCI-H522 lung
A549 NSCLC = system: A549 NSCLC
A498 renal = system: A498 renal
HOP-62 NSCLC = system: HOP-62 NSCLC
MDA-MB-435 melanoma = system: MDA-MB-435 melanoma

SMILES: CS(=O)(=O)c1ccc(C(=O)Nc2ccc(Cl)c(-c3ccccn3)c2)c(Cl)c1
- GI50 (COLO 205 colon): 40.3 µM
- TGI (COLO 205 colon): > 100 µM
- GI50 (CCRF-CEM leukemia): 19.9 µM
- TGI (CCRF-CEM leukemia): 50 µM
- GI50 (MDA-MB-468 breast): 22.2 µM
- TGI (MDA-MB-468 breast): 46.7 µM
- GI50 (NCI-H226 lung): 22.9 µM
- TGI (NCI-H226 lung): 64.3 µM
- GI50 (NCI-H322M lung): 67.2 µM
- TGI (NCI-H322M lung): > 100 µM
- GI50 (HS 578T breast): 27.6 µM
- TGI (HS 578T breast): > 84 µM
- GI50 (RPMI-8226 leukemia): 25 µM
- TGI (RPMI-8226 leukemia): 61.5 µM
- GI50 ([…]-0 renal): 22.8 µM
- TGI (786-0 renal): 58.3 µM
- GI50 (PC-3 prostate): 55 µM
- TGI (PC-3 prostate): > 100 µM
- GI50 (TK-10 renal): > 52.9 µM
- TGI (TK-10 renal): > 100 µM
- GI50 (K-562 leukemia): 16.3 µM
- TGI (K-562 leukemia): 31.1 µM
- GI50 (MALME-3M melanoma): 19 µM
- TGI (MALME-3M melanoma): 61.2 µM
- GI50 (SF-295 CNS): 33 µM
- TGI (SF-295 CNS): > 67.7 µM
- GI50 (DU-145 prostate): 42.5 µM
- TGI (DU-145 prostate): > 86.8 µM
- GI50 (ACHN renal): 35.6 µM
- TGI (ACHN renal): > 81.7 µM
- GI50 (SK-OV-3 ovarian): > 72.5 µM
- TGI (SK-OV-3 ovarian): > 100 µM
- GI50 (M14 melanoma): 47.5 µM
- TGI (M14 melanoma): > 100 µM
- GI50 (NCI-H23 lung): > 61.2 µM
- TGI (NCI-H23 lung): > 100 µM
- GI50 (UACC-62 melanoma): 44.4 µM
- TGI (UACC-62 melanoma): > 79.3 µM
- GI50 (HCT-15 colon): 26.2 µM
- TGI (HCT-15 colon): > 70.8 µM
- GI50 (MDA-MB-231 breast): > 65.9 µM
- TGI (MDA-MB-231 breast): > 100 µM
- GI50 (HOP-92 NSCLC): 31.2 µM
- TGI (HOP-92 NSCLC): 79 µM
- GI50 (EKVX NSCLC): 48.3 µM
- TGI (EKVX NSCLC): > 90.5 µM
- GI50 (HL-60(TB) leukemia): 19.6 µM
- TGI (HL-60(TB) leukemia): 49.1 µM
- GI50 (HT29 colon): 18.3 µM
- TGI (HT29 colon): 36.7 µM
- GI50 (OVCAR-5 ovarian): 54.2 µM
- TGI (OVCAR-5 ovarian): > 100 µM
- GI50 (T-47D breast): 21.4 µM
- TGI (T-47D breast): 59.7 µM
- GI50 (BT-549 breast): 25.1 µM
- TGI (BT-549 breast): 76.9 µM
- GI50 (SK-MEL-28 melanoma): > 53.4 µM
- TGI (SK-MEL-28 melanoma): > 100 µM
- GI50 (HCT-116 colon): 58.3 µM
- TGI (HCT-116 colon): > 100 µM
- GI50 (RXF 393 renal): 22.7 µM
- TGI (RXF 393 renal): 51.9 µM
- GI50 (SN12C renal): > 68.8 µM
- TGI (SN12C renal): > 100 µM
- GI50 (OVCAR-8 ovarian): 45.7 µM
- TGI (OVCAR-8 ovarian): 99.4 µM
- GI50 (NCI/ADR-RES ovarian): 25.3 µM
- TGI (NCI/ADR-RES ovarian): 71.7 µM
- GI50 (NCI-H460 NSCLC): 30.8 µM
- TGI (NCI-H460 NSCLC): > 70.3 µM
- GI50 (SNB-75 CNS): 32.3 µM
- TGI (SNB-75 CNS): 80.3 µM
- GI50 (CAKI-1 renal): 36.6 µM
- TGI (CAKI-1 renal): > 83.8 µM
- GI50 (SNB-19 CNS): > 64.8 µM
- TGI (SNB-19 CNS): > 100 µM
- GI50 (SW-620 colon): > 64 µM
- TGI (SW-620 colon): > 100 µM
- GI50 (KM12 colon): 17.9 µM
- TGI (KM12 colon): > 56.7 µM
- GI50 (UO-31 renal): 35.4 µM
- TGI (UO-31 renal): > 80.3 µM
- GI50 (SR leukemia): 29 µM
- TGI (SR leukemia): 50.6 µM
- GI50 (NCI-H522 lung): 46 µM
- TGI (NCI-H522 lung): > 100 µM
- GI50 (A549 NSCLC): 41.1 µM
- TGI (A549 NSCLC): > 100 µM
- GI50 (A498 renal): 31.9 µM
- TGI (A498 renal): > 71.7 µM
- GI50 (HOP-62 NSCLC): 61.9 µM
- TGI (HOP-62 NSCLC): > 100 µM
- GI50 (MDA-MB-435 melanoma): > 62 µM
- TGI (MDA-MB-435 melanoma): > 100 µM
